In patent publication US20170101431A1, “NUCLEOSIDE DERIVATIVES FOR THE TREATMENT OF CANCER” (IDENIX PHARMACEUTICALS LLC, priority 2014, published 2017):
Read-outs that look alike come from different tables or passages of the source. Blank lines part the entries; values can stand above or below the molecule they belong to.

How the values were obtained:
[1] = system: AML samples (live leukemic cells from bone marrow or peripheral blood of patients); test: Ex-vivo effect on AML patient samples (depletion of live leukemic cells, flow cytometry, Annexin V); type: cell-based, human
Protocol: Patient samples were obtained from a non-interventional and prospective study. The study included samples from adult patients over 18 years of age who were diagnosed with Acute Myeloid Leukemia (AML).
In one embodiment, the method of data acquisition was performed as follows: on day 1 bone marrow (BM) or peripheral blood (PB) patient sample was received. A small part was separated from the rest of the sample for validation, while the majority of the sample was diluted with culture media and plated into 96-well plates previously prepared with the desired compounds and compound combinations, e.g., a compound or compound combination described herein. The number of live leukemic cells seeded in each well was fixed between 8000 and 32000, depending on the percentage of leukemic cells for each sample. […] Antibodies were added to identify leukemic cells using a gating strategy based on FSC/SSC and expression or lack of expression of different surface markers. The monoclonal antibodies selection was performed to optimize the identification of leukemic cell in each sample.
In one embodiment, non-limiting examples of biomarkers such as the biomarkers CD34, CD45, CD117, and HLADR known as “backbone markers” for AML (van Dongen, J. J. and A. Orfao, EuroFlow: Resetting leukemia and lymphoma immunophenotyping. Basis for companion diagnostics and personalized medicine, Leukemia, 2012, 26, 1899-907) were included in the combination.
In one embodiment, antibody combinations such as CD117/CD45, CD34/CD45, and HLADR/CD45 were used. Live leukemic cells were identified by their light scatter properties (FSC^int/hi/SSC^int) in the absence of Annexin-V-FITC staining. FSC/SSC selection was performed to exclude debris. The average percentage of cell viability upon receipt of the sample was 80% and samples were only processed if the viability was greater than 50%.
In one embodiment, sample validation was performed as follows: BM and PB samples were extracted under sterile conditions and received in the laboratory within 24 hours of extraction. Initial analysis evaluated the number of pathological cells and their viability. Different volumes of sample (1 μL, 3 μL, 5 μL and 7 μL) were aliquoted in duplicate into a 96-well plate. To lyse red blood cells, 180 μL of ammonium chloride lysis solution was added to each well (2 g KHCO3, 16.58 g NH4Cl, 0.074 g Na2EDTA2.H2O, H2O to […]). Following a 10 min incubation period at 4° C., plate was centrifuged for 5 min at 1200 rpm and the supernatant removed. The lysis step was performed twice. To analyze, 20 μL of a combination of Annexin V-FITC (Immunostep, Salamanca, Spain), binding buffer (BB, 2.4 g HEPES, 8.19 g NaCl, 0.37 g Cl2Ca, H2O to […]), and the following monoclonal antibodies (mAb) were added to each well: CD117 (clone 104D2)-PE (Becton Dickinson, San Jose, Calif., US), CD34 (clone 581)-PerCP (BioLegend, San Diego, Calif., US), HLADR (clone L243)-PB (BioLegend) and CD45 (HI30)-PO (Life Technologies, Carlsbad, Calif., US) (van Dongen, J. J., et al., EuroFlow antibody panels for standardized n-dimensional flow cytometric immunophenotyping of normal, reactive and malignant leukocytes, Leukemia, 2012, 26, 1908-75). After 15 min of incubation at room temperature in the dark, a wash step was performed using binding buffer solution. The pellet was resuspended in 30 μL BB for analysis in Vivia's ExviTech© platform. Cell count and viability upon arrival were computed and the optimal volume of sample to use per well was determined.
In one embodiment, the assay was performed according to following method: the whole sample was diluted with RPMI 1640, supplemented with 20% (v/v) FBS (Thermo Scientific, Waltham, Mass., US), 2% HEPES, 1% antibiotic (Zell Shield, Labclinics, Barcelona, Spain) and 1% L-glutamine 200 mM (Lonza, Hopkinton, Mass., US) to a final volume of 60 μL per well. […]

[2] = system: CCRF-CEM-cytarabine resistant; test: In vitro inhibition, CellTiter-Glo (CTG) assay, CCRF-CEM-cytarabine resistant; type: cell-based; conditions: 72 h, 72 hr exposure
Protocol: (§1) Cells were grown in RPMI-1640 supplemented with L-Glutamine and 10% FBS of the following cancer cell lines:
(§2) CCRF-CEM; CCRF-CEM-cytarabine resistant; HL-60;
(§3) 18, 96 well plates of each cell line were seeded with the optimized number of cells per well in a total volume of 50 μL per well. The plates were left overnight. Plate wells were seeded with 100 μL media for media control. The following day, cells were exposed to test compounds as described below. At the same time as drug exposure, a CTG assay was conducted on the 18th plate for the 0 hr count.
(§4) The compounds were added to cells and medium already on the plate to give desired final concentrations. 50 μL media were added to cell control wells, and 50 μL of mix added to vehicle control wells. 10 μM Doxorubicin was added to appropriate wells as control. Cells exposed to test compound were incubated at 37° C. for 72 hr followed by a CTG assay.
(§5) At the end of the 72 hr exposure period, plates were removed for a CellTiter-Glo (CTG) assay from a 37° C., 5% CO2 incubator and placed on the bench at room temperature for 30 mins. 100 μL of CellTiter-Glo reagent was added and mixed for 2 mins, followed by a further 10 min incubation at room temperature. Luminescence was recorded using Synergy 4.0.

CCRF-CEM = test: In vitro inhibition, CellTiter-Glo (CTG) assay, CCRF-CEM; type: cell-based; conditions: Homo sapiens, 72 hr exposure
Protocol: as §1, §2, §3, §4, §5

HL-60 = test: In vitro inhibition, CellTiter-Glo (CTG) assay, HL-60; type: cell-based; conditions: Homo sapiens, HL-60, 72 h, HL-60, 72 hr exposure
Protocol: as §1, §2, §3, §4, §5

[3] = Homo sapiens, 72 h, plates incubated for 72 hours
[4] = Homo sapiens, 72 h, plates incubated for 72 hours, read-out: Emax
[5] = Homo sapiens, 48 h, plates incubated for 48 hours
[6] = Homo sapiens, 48 h, plates incubated for 48 hours, read-out: Emax

EC50 [1, 3]: ≤ 1 µM
Structure (SMILES): Nc1nc(Cl)nc2c1ncn2[C@@H]1O[C@H](COP(=O)(O)NCc2ccccc2)C(O)C1F (stereo partly shown)
Emax [1, 4]: 0 to 10%

EC50 [1, 3]: 1 to 10 µM
Structure (SMILES): COC(=O)[C@H](CC(C)C)NP(=O)(N[C@@H](CC(C)C)C(=O)OC)OC[C@H]1O[C@@H](n2cnc3c(N)nc(Cl)nc32)C(F)C1O (stereo partly shown)
Emax [1, 4]: > 20%

EC50 [1, 3]: 10 to 20 µM
Structure (SMILES): Nc1ccn([C@@H]2O[C@H](COP(=O)(O)NCc3ccccc3)C(O)C2O)c(=O)n1 (stereo partly shown)
Emax [1, 4]: 0 to 10%

EC50 [1, 3]: 10 to 20 µM
Structure (SMILES): CCCCCCCC/C=C/CCCCCCCC(=O)Nc1ccn([C@@H]2O[C@H](COP(=O)(N[C@@H](CC(C)C)C(=O)OC)N[C@@H](CC(C)C)C(=O)OC)C(O)C2O)c(=O)n1 (stereo partly shown)
Emax [1, 4]: > 20%

EC50 [1, 3]: 10 to 20 µM
Structure (SMILES): CC(C)(CO)C(=O)SCCOP(=O)(NCc1ccccc1)OC[C@H]1O[C@@H](n2ccc(N)nc2=O)C(O)C1O (stereo partly shown)
Emax [1, 4]: 0 to 10%

EC50 [1, 3]: 1 to 10 µM
Structure (SMILES): CC(C)(O)C(=O)SCCOP(=O)(OCCSC(=O)C(C)(C)CO)OC[C@H]1O[C@@H](N2C=NC3C(N)=NC(Cl)=NC32)[C@@H](F)[C@@H]1O (stereo partly shown)
Emax [1, 4]: 10 to 20%

Structure (SMILES): CC(C)OC(=O)[C@H](C)NP(=O)(OC[C@H]1O[C@@H](n2cnc3c(N)nc(F)nc32)[C@@H](O)[C@@H]1O)Oc1ccccc1 (stereo partly shown)
EC50 ([1]; Homo sapiens, plates incubated for 48 hours): ≥ 20 µM | Emax ([1]; Homo sapiens, plates incubated for 48 hours, read-out: Emax): 0 to 10%

EC50 [1, 5]: 1 to 10 µM
Structure (SMILES): Nc1nc(F)nc2c1ncn2[C@@H]1O[C@H](COP(=O)(O)NCc2ccccc2)[C@@H](O)[C@@H]1O
Emax [1, 6]: 0 to 10%

EC50 [1, 5]: 10 to 20 µM
Structure (SMILES): CCOC(=O)[C@H](CC(C)C)NP(=O)(O)OC[C@H]1O[C@@H](N2C=NC3C(N)=NC(F)=NC32)[C@@H](O)[C@@H]1O (stereo partly shown)
Emax [1, 6]: > 20%

EC50 [1, 5]: ≥ 20 µM
Structure (SMILES): COC(=O)[C@H](CC(C)C)NP(=O)(N[C@@H](CC(C)C)C(=O)OC)OC[C@H]1O[C@@H](N2C=NC3C(N)=NC(F)=NC32)[C@@H](O)[C@@H]1O (stereo partly shown)
Emax [1, 6]: 10 to 20%

EC50 [1, 5]: 1 to 10 µM
Structure (SMILES): COC(=O)COP(=O)(NC(CC(C)C)C(=O)OC)OC[C@H]1O[C@@H](n2cnc3c(N)nc(F)nc32)[C@@H](O)[C@@H]1O (stereo partly shown)
Emax [1, 6]: 0 to 10%

IC50 [2]: 10 to 25 µM | IC50 (CCRF-CEM): < 1 µM | IC50 (HL-60): 10 to 25 µM
Structure (SMILES): C[C@H](NP(=O)(OCc1ccc([N+](=O)[O-])s1)OC[C@H]1O[C@@H](n2ccc(N)nc2=O)[C@@H](O)[C@@H]1O)C(=O)OCc1ccccc1 (single isomer, unassigned) [24f (diastereoisomer 1)]

EC50 ([1]; plates incubated for 72 hours): ≤ 1 µM
Structure (SMILES): CCOC(=O)C(C)NP1(=O)OCC2O[C@@H](n3cnc4c(N)nc(Cl)nc43)[C@@H](F)[C@@H]2O1 (single isomer, unassigned) [drawing 653]
Emax ([1]; plates incubated for 72 hours): A (A=0-10%)

EC50 ([1]; plates incubated for 72 hours): 10 to 20 µM
Structure (SMILES): CCOC(=O)C(C)NP1(=O)OCC2O[C@@H](n3cnc4c(N)nc(Cl)nc43)[C@@H](F)[C@@H]2O1 (single isomer, unassigned) [drawing 654]
Emax ([1]; plates incubated for 72 hours): B (B=10-20%)

EC50 [1, 3]: ≤ 1 µM
Structure (SMILES): CC(C)(CO)C(=O)SCCOP(=O)(NCc1ccccc1)OC[C@H]1O[C@@H](n2cnc3c(N)nc(Cl)nc32)C(F)C1O (single isomer, unassigned) [drawing 657]
Emax [1, 4]: 10 to 20%
